Among the data in patent US20220235043A1, “SUBSTITUTED SULFONAMIDE PYRROLOPYRIDINES AS JAK INHIBITORS” (ACLARIS THERAPEUTICS, INC., priority 2019, published 2022) are IC50 values, retold here.

For assay [1], the system named is IL-12 stimulated STAT4 phosphorylation on Tyr693 (JAK2/TYK2). The experiment in a line: JAK2/TYK2 cellular target modulation: IL-12 stimulated phospho-STAT4 in human PBMC. To be noted: IL-12 1.7 ng/ml, read-out: IL12-STAT4 IC50. It counts as cell-based. From the text:
(§1) Target modulation was based upon the ability of a compound to inhibit JAK isoform specific phosphorylation of selected substrates. IL-2 stimulated STAT5 phosphorylation on Tyr694 was used to assess JAK1/3 compound selectivity. GM-CSF stimulated STAT5 phosphorylation on Tyr694 was used to assess JAK2 compound selectivity. IFNγ stimulated STAT1 phosphorylation on Tyr701 was used to assess JAK1/2 compound selectivity. IL-12 stimulated STAT4 phosphorylation on Tyr693 was used to assess JAK2/TYK2 compound selectivity. For all four assays, human PBMC from frozen stocks were thawed, pelleted, resuspended in complete media (90% RPMI, 10% heat inactivated FBS, 10 mM HEPES, 47 μM 2-ME, pen/strep) and placed in wells of a 96 well V-bottom plate at 200,000 per well in 120 μl complete media. Compounds were added as 15 μl per well of 10× working stock solutions in complete media with 1% DMSO (or medium with 1% DMSO for controls) and placed on a plate shaker in a 37° C. incubator with 5% CO2 for 1 hour with gentle shaking (setting of 3). Stimulation used the addition of soluble cytokines. For the JAK1/3 phospho-STAT5 assay, 15 μl of 10× working stock recombinant human IL-2 was added to a final concentration of 25 ng/ml. For the JAK2 phospho-STAT5 assay, 15 μl of 10× working stock recombinant human GM-CSF was added to a final concentration of 5 ng/ml. For the JAK1/2 phospho-STAT1 assay, 15 μl of 10× working stock of recombinant human IFNγ was added to a final concentration of 10 ng/ml. For the JAK2/TYK2 phospho-STAT4 assay, 15 μl of 10× working stock of recombinant human IL-12 was added to a final concentration of 1.7 ng/ml. Plates were then placed back on the plate shaker in the incubator for an additional 5, 5, 10, and 25 minutes respectively upon which the plates were removed from the incubator, sealed with a plate sealer and the cells pelleted at 400×g for 5 minutes. After pelleting, the media was removed by aspiration and the cells were lysed in assay specific cell lysis buffer. The levels of phospho-STAT5 were determined using a Phospho (Tyr694)STAT5a,b Whole Cell Lysate kit from Meso Scale Discovery. Levels of phospho-STAT1 were determined using a CST-PathScan Phospho-STAT1 (Tyr701) Sandwich ELISA kit. Levels of phospho-STAT4 were determined using a Phospho-STAT4 (Tyr693) Whole Cell Lysate kit from Meso Scale Discovery.

A further assay has as its target T1, JAK2 (Homo sapiens, UniProt O60674).
T1 construct: purchased Thermo Fisher Scientific (SelectScreen service)
The experiment in a line: JAK2 enzyme activity assay (Thermo Fisher Selectscreen, Z-lyte). In kind it is biochemical. Conditions: read-out: JAK2 Inhibition IC50. As to the method:
(§2) The inhibitory potency of candidate compounds of JAK1, JAK2, and Tyk-2 was done at Thermo Fisher Scientific in their Selectscreen using a Z-lyte assay. Following are the assay details for each enzyme.
JAK2: The 2×JAK2/Tyr 06 mixture is prepared in 50 mM HEPES pH 7.5, 0.01% BRIJ-35, 10 mM MgCl2, 1 mM EGTA. The final 10 μL Kinase Reaction consists of 0.12-0.5 ng JAK2 and 2 μM Tyr 06 in 50 mM HEPES pH 7.5, 0.01% BRIJ-35, 10 mM MgCl2, 1 mM EGTA. After the one hour Kinase Reaction incubation, 5 μL of a 1:128 dilution of Development Reagent A is added.
(§3) Data reduction for JAK1, JAK2 and TYK2 is done the same, independent of the enzyme run. In summary, background signal is defined in the absence of enzyme and uninhibited signal is defined in the presence of vehicle (2% DMSO) alone. Compounds were evaluated in an 11 point dose-response ranging from […] to 0.34 nM. IC50 values of compounds are determined using a 4 parameter logistical fit of emission ratio as a function of the concentration of compound.

Assay [2] relates to IFNγ stimulated STAT1 phosphorylation on Tyr701 (JAK1/2). In words: JAK1/2 cellular target modulation: IFNγ stimulated phospho-STAT1 in human PBMC. In kind it is cell-based. Conditions: IFNγ 10 ng/ml, read-out: Infγ-STAT1 IC50.
Source text: as §1

The target of a further assay is T2, Tyk-2 (Homo sapiens, UniProt P29597).
T2 construct: purchased Thermo Fisher Scientific (SelectScreen service)
The experiment in a line: Tyk-2 enzyme activity assay (Thermo Fisher Selectscreen, Z-lyte). In kind it is biochemical. Conditions: read-out: Tyk-2 Inhibition IC50. On the procedure:
as §2
TYK2: The 2×TYK2/Tyr 03 mixture is prepared in 50 mM HEPES pH 6.5, 0.01% BRIJ-35, 10 mM MgCl2, 1 mM EGTA, 0.02% NaN3. The final 10 μL Kinase Reaction consists of 3.75-15 ng TYK2 and 2 μM Tyr 03 in 50 mM HEPES pH 7.0, 0.01% BRIJ-35, 10 mM MgCl2, 1 mM EGTA, 0.01% NaN3. After the one hour KinaseReaction incubation, 5 μL of a 1:4096 dilution of Development Reagent A is added.
as §3

A further assay deals with T3, JAK1 (Homo sapiens, UniProt P23458).
T3 construct: purchased Thermo Fisher Scientific (SelectScreen service)
The experiment in a line: JAK1 enzyme activity assay (Thermo Fisher Selectscreen, Z-lyte). In kind it is biochemical. To be noted: read-out: JAK1 Inhibition IC50. As to the method:
as §2
JAK1: The 2×JAK-enzyme/Tyr 06 mixture is prepared in 50 mM HEPES pH 6.5, 0.01% BRIJ-35, 10 mM MgCl2, 1 mM EGTA, 0.02% NaN3. The final 10 μL of the Kinase Reaction consists of 21.2-91.5 ng JAK1 and 2 μM Tyr 06 in 50 mM HEPES pH 7.0, 0.01% BRIJ-35, 10 mM MgCl2, 1 mM EGTA, 0.01% NaN3. After the one hour Kinase Reaction incubation, 5 μL of a 1:128 dilution of Development Reagent is added.
as §3

For assay [3], the system named is IL-2 stimulated STAT5 phosphorylation on Tyr694 (JAK1/3). In words: JAK1/3 cellular target modulation: IL-2 stimulated phospho-STAT5 in human PBMC. It counts as cell-based. To be noted: IL-2 25 ng/ml, read-out: IL2-STAT5 IC50.
Source text: as §1

Another assay addresses T4, JAK3 (a.a. 781-1124) (Homo sapiens, UniProt P52333).
T4 construct: JAK3 (a.a. 781-1124, ThermoFisher); purchased ThermoFisher
The experiment in a line: JAK3 enzyme activity assay (SRCtide phosphorylation, Caliper). It counts as biochemical. Conditions: 1 uM ATP; read-out: JAK3 Inhibition IC50. As to the method:
The activity of JAK3 (a.a. 781-1124, ThermoFisher) was quantified by measuring the phosphorylation of SRCtide (FAM-GEEPLYWSFPAKKK-NH2). Kinase reactions were run in a 384-well Greiner plate with 2% final DMSO concentration under the buffer conditions of 20 mM HEPES, pH 7.5, 10 mM MgCl2, 0.01% BSA, and 0.0005% Tween-20. The kinase reaction components were 2.5 nM JAK3, 1 μM SRCtide peptide and 1 uM ATP. Examples were tested in dose-response starting at […] (11 concentrations, 3-fold serial dilution, duplicate reactions). The reactions were incubated at room temperature for 40 minutes, then stopped by adding a 1:1 volume of 30 mM EDTA in 20 mM HEPES, pH 7.5 (15 mM EDTA final). After the reaction was stopped, the phosphorylated and unphosphorylated peptides were separated and quantified using a Caliper LC3000/EZ-Reader system and HTS Well Analyzer Software (Caliper, A PerkinElmer Company, Hopkinton, Mass.). GraFit (Erithacus Software Ltd., Horley, U.K.) was used to calculate inhibitor potency by fitting dose-response data to the 4-parameter logistical IC50 equation.

T1 sequence (O60674 whole entry): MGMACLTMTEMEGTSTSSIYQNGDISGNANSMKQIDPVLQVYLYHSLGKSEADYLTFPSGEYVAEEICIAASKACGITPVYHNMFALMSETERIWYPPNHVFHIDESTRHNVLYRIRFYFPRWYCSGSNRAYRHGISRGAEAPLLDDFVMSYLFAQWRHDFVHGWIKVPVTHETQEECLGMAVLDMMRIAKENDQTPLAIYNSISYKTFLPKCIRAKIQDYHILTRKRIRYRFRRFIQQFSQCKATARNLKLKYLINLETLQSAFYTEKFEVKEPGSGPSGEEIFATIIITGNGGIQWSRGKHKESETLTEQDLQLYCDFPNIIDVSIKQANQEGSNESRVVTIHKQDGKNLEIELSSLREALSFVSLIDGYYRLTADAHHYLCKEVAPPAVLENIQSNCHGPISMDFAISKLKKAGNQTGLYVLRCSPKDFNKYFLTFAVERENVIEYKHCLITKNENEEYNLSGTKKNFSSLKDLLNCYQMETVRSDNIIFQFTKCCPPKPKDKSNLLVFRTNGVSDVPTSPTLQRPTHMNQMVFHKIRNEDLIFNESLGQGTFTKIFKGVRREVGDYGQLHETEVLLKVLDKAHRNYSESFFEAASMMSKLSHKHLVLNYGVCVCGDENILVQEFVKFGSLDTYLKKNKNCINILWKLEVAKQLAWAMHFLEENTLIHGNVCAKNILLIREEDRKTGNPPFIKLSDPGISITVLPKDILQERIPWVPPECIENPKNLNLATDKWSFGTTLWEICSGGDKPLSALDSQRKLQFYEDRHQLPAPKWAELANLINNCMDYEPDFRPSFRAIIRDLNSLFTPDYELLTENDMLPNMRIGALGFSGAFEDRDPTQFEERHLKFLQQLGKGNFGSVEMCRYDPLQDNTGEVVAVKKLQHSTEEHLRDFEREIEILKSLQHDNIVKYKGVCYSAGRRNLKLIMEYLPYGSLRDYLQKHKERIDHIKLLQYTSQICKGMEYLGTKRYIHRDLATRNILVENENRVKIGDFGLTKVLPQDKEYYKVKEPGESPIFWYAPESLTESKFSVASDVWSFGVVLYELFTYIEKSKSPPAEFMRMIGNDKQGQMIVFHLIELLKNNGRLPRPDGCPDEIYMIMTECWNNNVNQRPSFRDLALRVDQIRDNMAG
T3 sequence (P23458 whole entry): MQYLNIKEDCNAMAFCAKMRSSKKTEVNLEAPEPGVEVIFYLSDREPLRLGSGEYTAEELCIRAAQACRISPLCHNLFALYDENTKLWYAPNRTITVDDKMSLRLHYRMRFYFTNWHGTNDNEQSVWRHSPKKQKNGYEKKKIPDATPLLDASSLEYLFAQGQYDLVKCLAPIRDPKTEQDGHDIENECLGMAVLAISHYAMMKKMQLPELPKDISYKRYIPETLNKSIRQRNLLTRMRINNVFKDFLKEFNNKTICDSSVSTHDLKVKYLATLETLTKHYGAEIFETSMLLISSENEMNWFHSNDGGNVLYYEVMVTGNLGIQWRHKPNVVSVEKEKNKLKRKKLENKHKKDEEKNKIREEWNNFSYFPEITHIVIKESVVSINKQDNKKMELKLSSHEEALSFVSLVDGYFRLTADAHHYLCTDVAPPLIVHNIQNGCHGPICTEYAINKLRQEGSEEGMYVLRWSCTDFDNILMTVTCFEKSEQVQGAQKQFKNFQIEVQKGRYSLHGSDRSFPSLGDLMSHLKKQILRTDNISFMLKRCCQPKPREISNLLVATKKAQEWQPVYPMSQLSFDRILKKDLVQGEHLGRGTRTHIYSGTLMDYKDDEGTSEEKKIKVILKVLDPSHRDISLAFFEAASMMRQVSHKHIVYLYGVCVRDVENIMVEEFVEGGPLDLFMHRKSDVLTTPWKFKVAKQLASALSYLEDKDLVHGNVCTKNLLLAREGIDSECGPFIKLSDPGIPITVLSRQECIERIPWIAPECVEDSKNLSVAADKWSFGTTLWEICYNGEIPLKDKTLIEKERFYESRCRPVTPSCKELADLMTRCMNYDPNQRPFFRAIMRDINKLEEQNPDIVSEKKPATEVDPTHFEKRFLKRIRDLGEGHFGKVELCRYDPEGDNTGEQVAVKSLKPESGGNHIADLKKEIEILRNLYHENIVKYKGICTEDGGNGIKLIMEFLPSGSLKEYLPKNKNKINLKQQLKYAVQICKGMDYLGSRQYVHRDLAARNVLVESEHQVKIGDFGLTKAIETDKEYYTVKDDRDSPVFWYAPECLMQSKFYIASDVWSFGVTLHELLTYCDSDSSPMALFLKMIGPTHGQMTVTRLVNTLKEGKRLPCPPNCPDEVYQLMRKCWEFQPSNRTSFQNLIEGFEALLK
T4 sequence (P52333 781-1124): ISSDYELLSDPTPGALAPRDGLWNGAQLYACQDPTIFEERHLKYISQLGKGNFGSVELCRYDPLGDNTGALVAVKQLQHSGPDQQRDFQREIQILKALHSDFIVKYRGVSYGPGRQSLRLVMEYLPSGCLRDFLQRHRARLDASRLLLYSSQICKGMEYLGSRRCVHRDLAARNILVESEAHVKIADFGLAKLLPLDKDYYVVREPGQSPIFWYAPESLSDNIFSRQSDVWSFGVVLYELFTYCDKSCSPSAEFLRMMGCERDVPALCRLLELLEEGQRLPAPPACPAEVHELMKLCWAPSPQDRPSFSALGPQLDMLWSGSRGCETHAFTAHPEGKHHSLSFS
T2 sequence (P29597 whole entry): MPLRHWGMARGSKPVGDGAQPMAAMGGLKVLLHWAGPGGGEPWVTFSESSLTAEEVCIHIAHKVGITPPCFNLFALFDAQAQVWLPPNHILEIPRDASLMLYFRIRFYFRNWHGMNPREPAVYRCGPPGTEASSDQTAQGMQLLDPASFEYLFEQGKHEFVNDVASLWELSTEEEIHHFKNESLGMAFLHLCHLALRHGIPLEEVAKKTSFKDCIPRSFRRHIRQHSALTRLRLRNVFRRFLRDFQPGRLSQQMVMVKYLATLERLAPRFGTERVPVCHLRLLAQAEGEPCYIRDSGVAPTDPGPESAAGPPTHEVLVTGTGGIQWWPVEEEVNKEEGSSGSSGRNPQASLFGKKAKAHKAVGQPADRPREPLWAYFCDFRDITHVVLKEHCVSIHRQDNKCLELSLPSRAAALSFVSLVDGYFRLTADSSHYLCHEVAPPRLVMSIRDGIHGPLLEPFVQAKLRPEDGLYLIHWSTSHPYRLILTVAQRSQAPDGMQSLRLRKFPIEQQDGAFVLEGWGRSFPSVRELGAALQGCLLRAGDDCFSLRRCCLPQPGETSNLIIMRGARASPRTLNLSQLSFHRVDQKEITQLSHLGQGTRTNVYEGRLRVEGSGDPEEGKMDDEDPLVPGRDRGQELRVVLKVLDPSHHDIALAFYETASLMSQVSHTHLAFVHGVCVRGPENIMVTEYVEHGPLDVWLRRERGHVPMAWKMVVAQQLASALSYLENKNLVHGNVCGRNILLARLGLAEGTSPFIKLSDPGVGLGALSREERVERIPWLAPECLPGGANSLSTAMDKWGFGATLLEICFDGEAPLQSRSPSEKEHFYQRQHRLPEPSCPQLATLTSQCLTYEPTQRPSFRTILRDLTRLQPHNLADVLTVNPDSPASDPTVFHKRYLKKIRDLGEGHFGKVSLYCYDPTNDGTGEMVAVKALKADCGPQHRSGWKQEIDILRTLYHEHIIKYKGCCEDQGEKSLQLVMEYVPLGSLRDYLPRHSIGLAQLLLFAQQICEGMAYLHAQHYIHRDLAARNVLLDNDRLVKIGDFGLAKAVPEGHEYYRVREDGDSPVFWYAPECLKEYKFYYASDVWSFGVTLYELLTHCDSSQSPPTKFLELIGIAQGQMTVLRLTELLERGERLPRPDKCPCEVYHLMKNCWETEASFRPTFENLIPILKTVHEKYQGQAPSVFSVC

By IC50 is commonly meant the midpoint of a concentration-inhibition curve. For `N#Cc1cccc(S(=O)(=O)N[C@H]2C[C@@H](Nc3c(-c4nncs4)cnc4[nH]ccc34)C2)c1` [Example 78, N-((1s,3s)-3-((5-(1,3,4-thiadiazol-2-yl)-1H-pyrrolo[2,3-b]pyridin-4-yl)amino)cyclobutyl)-3-cyanobenzenesulfonamide], the IC50 is greater than 1000 nM in assay [1]; no more than 10 nM on JAK2; 100 to 1000 nM in assay [2]; no more than 10 nM on Tyk-2; no more than 10 nM on JAK1; no more than 100 nM in assay [3]. Further, the IC50 on JAK3 (a.a. 781-1124) fell in the range of 10 to 100 nM.
On to `Cc1nnc(-c2cnc3[nH]ccc3c2N[C@H]2C[C@@H](NS(=O)(=O)c3cc(C#N)ccn3)C2)o1` [Example 83, 4-cyano-N-((1s,3s)-3-((5-(5-methyl-1,3,4-oxadiazol-2-yl)-1H-pyrrolo[2,3-b]pyridin-4-yl)amino)cyclobutyl)pyridine-2-sulfonamide], for which the IC50 on JAK2 was 100 to 1000 nM; on Tyk-2 it was greater than 1000 nM; at JAK1 it was 100 to 1000 nM; at JAK3 (a.a. 781-1124) it was greater than 1000 nM.
As for `CCOC(=O)c1cnc2[nH]ccc2c1NC1CC(NS(=O)(=O)c2cc(C#N)ccn2)C1` (mixture of isomers) [Example 1, ethyl 4-((3-((4-cyanopyridine)-2-sulfonamido)cyclobutyl)amino)-1H-pyrrolo[2,3-b]pyridine-5-carboxylate], the half-inhibitory concentration (IC50) at JAK2 is 100 to 1000 nM; in assay [2], greater than 1000 nM; on Tyk-2, 100 to 1000 nM; on JAK1, 10 to 100 nM; in assay [3] it was 100 to 1000 nM; on JAK3 (a.a. 781-1124), 10 to 100 nM.
Regarding `CCCS(=O)(=O)N[C@H]1C[C@@H](Nc2c(-c3ncco3)cnc3[nH]ccc23)C1` [Example 65, N-((1s,3s)-3-((5-(1,3-oxazol-2-yl)-1H-pyrrolo[2,3-b]pyridin-4-yl)amino)cyclobutyl)propane-1-sulfonamide], the IC50 was greater than 1000 nM in assay [1]; no more than 10 nM at JAK2; 10 to 100 nM at Tyk-2; no more than 10 nM at JAK1; no more than 100 nM in assay [3]; 10 to 100 nM on JAK3 (a.a. 781-1124).
As for `CNC(=O)c1ccnc(-c2cnc3[nH]ccc3c2N[C@H]2C[C@@H](NS(=O)(=O)c3cc(C#N)ccn3)C2)c1` [Example 67, 2-(4-(((1s,3s)-3-((4-cyanopyridine)-2-sulfonamido)cyclobutyl)amino)-1H-pyrrolo[2,3-b]pyridin-5-yl)-N-methylisonicotinamide], the IC50 on JAK2 was 10 to 100 nM; in assay [2] it was greater than 1000 nM; at Tyk-2 it was 10 to 100 nM; on JAK1, no more than 10 nM; in assay [3] it was 100 to 1000 nM; at JAK3 (a.a. 781-1124), 100 to 1000 nM.
For `CCCS(=O)(=O)N[C@H]1C[C@@H](Nc2c(-c3nnco3)cnc3[nH]ccc23)C1` [Example 80, N-((1s,3s)-3-((5-(1,3,4-oxadiazol-2-yl)-1H-pyrrolo[2,3-b]pyridin-4-yl)amino)cyclobutyl)propane-1-sulfonamide], the IC50 in assay [1] is greater than 1000 nM; at JAK2 it was 10 to 100 nM; at Tyk-2, 100 to 1000 nM; on JAK1, 10 to 100 nM; in assay [3], 100 to 1000 nM; at JAK3 (a.a. 781-1124), 10 to 100 nM.
For the compound `CCOC(=O)c1cnc2[nH]ccc2c1N[C@H]1C[C@H](NS(=O)(=O)c2cc(C#N)ccn2)C1` [Example 4, ethyl 4-(((1r,3r)-3-((4-cyanopyridine)-2-sulfonamido)cyclobutyl)amino)-1H-pyrrolo[2,3-b]pyridine-5-carboxylate], the IC50 at JAK2 was 10 to 100 nM; at Tyk-2, 100 to 1000 nM; on JAK1, 10 to 100 nM; in assay [3], greater than 1000 nM; at JAK3 (a.a. 781-1124) it was 10 to 100 nM.
In the case of `CCOC(=O)c1cnc2[nH]ccc2c1N[C@H]1C[C@@H](NS(=O)(=O)c2cccc(C#N)c2)C1` [Example 2, cis-Ethyl 4-((3-((3-cyanophenyl)sulfonamido)cyclobutyl)amino)-1H-pyrrolo[2,3-b]pyridine-5-carboxylate], the 50% inhibitory concentration (IC50) on JAK2 is 10 to 100 nM; in assay [2], 100 to 1000 nM; at Tyk-2 it was 10 to 100 nM; on JAK1 it was no more than 10 nM; in assay [3] it was no more than 100 nM; at JAK3 (a.a. 781-1124), 10 to 100 nM.
In the case of `CCCS(=O)(=O)N[C@H]1C[C@@H](Nc2c(-c3cc(C(=O)NC)ccn3)cnc3[nH]ccc23)C1` [Example 68, N-methyl-2-(4-(((1s,3s)-3-(propylsulfonamido)cyclobutyl)amino)-1H-pyrrolo[2,3-b]pyridin-5-yl)isonicotinamide], the IC50 at JAK2 is 100 to 1000 nM; on Tyk-2 it was 100 to 1000 nM; at JAK1, 10 to 100 nM; in assay [3] it was greater than 1000 nM; on JAK3 (a.a. 781-1124), 10 to 100 nM.
Consider `CCOC(=O)c1cnc2[nH]ccc2c1N[C@H]1C[C@H](NS(=O)(=O)c2cccc(C#N)c2)C1` [Example 3, trans-Ethyl 4-((3-((3-cyanophenyl)sulfonamido)cyclobutyl)amino)-1H-pyrrolo[2,3-b]pyridine-5-carboxylate], for which the IC50 on JAK2 is 10 to 100 nM; in assay [2], 100 to 1000 nM; on Tyk-2 it was 10 to 100 nM; on JAK1, no more than 10 nM; in assay [3], 100 to 1000 nM; at JAK3 (a.a. 781-1124) it was 10 to 100 nM.
